Values joined by “and” are separate entries in the source; they are usually repeats but may differ in a detail not shown here. Equal values may be shown once. Read-outs that look alike come from different tables or passages of the source.
What was measured:
S1P1 = S1P1 (Homo sapiens, UniProt P21453); assay: competitive S1Ps cell membrane binding assay against [32P]S1P, S1P1
Text: (§1) One way to measure affinity is use of a general competition binding assay.

S1P3 = S1P3 (Homo sapiens, UniProt Q99500); assay: competitive S1Ps cell membrane binding assay against [32P]S1P, S1P3; details: Table 6
S1P2 = S1P2 (Homo sapiens, UniProt O95136); assay: competitive S1Ps cell membrane binding assay against [32P]S1P, S1P2; details: Table 6
S1P4 = target: T1, S1P4 (Homo sapiens, UniProt O95977); assay: competitive S1Ps cell membrane binding assay against [32P]S1P, S1P4; details: Table 6; read-out: IC50 for S1P4
T1 sequence (O95977 1-384): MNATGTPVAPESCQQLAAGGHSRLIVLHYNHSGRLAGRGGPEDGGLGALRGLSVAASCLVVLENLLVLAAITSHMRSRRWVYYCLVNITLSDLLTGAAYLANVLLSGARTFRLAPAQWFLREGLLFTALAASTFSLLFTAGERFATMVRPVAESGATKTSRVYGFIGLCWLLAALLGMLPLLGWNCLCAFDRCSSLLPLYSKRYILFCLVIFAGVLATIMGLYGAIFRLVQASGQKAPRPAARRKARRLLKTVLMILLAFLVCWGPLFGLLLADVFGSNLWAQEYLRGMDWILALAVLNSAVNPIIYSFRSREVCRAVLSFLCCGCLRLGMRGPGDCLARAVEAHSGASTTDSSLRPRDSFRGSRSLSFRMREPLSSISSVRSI

S1P5 = S1P5 (Homo sapiens, UniProt Q9H228); assay: competitive S1Ps cell membrane binding assay against [32P]S1P, S1P5
Text: as §1

[1] = Human biodistribution / dosimetry PET study of [11C]CS1P1; type: in vivo
Experimental: One human (88 kg, SIEMENS, patient ID: 1179101) was imaged with a dose of 7.2 mCi (FIG. 10A). Good uptake was found in the brain (FIG. 10B). Residence time and total absorbed dose in individual organs was also measured (FIG. 10C and Table 4).

[2] = MicroPET brain study in cynomolgus macaque; details: for brain uptake in nonhuman primates: MicroPET, in words
Experimental: Using a Focus 220 microPET scanner to collect dynamic scans for 2 hours after intravenous injection of ˜0.35 GBq dose into male macaques. Radiometabolites were measured from arterial blood samples collected at 5, 15, 30, and 60 min post-injection of radiotracer. The HPLC eluent was collected, and fractions were counted in a gamma counter.
Male macaques (˜10 kg) were used for PET imaging data acquisition with a microPET Focus 220 scanner (Siemens Inc., Knoxville, TN). Animals were anesthetized using ketamine and glycopyrrolate and maintained with inhalation of isoflurane. Core temperature was kept at 37° C. with a heated water blanket. The head was secured in a customized head holder. […] Emission data were corrected for dead time, scatter, and attenuation and then reconstructed. […] Predefined brain regions of interest from the template were applied to the co-registered PET image to obtain regional time-activity curves. The measurement of the brain uptake of radiotracer was standardized to body weight and the dose of radioactivity injected to yield a standardized uptake value (SUV).
The brain uptakes of these tracers were measured by Focus 220 microPET scanner to collect dynamic scans for 2 hours after intravenous injection of ˜0.35 GBq dose into male cynomolgus macaques (8-9 kg).

[3] = read-out: IC50 (nM) S1P1, Table 5
[4] = Table 5, read-out: IC50 (nM) S1P5

S1P3, sequence (Q99500 whole entry, species assumed): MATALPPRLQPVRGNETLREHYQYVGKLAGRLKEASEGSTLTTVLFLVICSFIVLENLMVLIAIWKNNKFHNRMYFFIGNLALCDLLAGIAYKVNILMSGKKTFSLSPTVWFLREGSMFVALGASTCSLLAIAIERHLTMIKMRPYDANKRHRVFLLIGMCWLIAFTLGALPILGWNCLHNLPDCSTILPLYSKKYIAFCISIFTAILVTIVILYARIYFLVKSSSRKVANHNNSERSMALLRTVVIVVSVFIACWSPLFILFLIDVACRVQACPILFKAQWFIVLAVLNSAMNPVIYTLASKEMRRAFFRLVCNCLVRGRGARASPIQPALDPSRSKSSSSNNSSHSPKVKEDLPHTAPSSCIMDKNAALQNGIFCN
S1P2, sequence (O95136 whole entry, species assumed): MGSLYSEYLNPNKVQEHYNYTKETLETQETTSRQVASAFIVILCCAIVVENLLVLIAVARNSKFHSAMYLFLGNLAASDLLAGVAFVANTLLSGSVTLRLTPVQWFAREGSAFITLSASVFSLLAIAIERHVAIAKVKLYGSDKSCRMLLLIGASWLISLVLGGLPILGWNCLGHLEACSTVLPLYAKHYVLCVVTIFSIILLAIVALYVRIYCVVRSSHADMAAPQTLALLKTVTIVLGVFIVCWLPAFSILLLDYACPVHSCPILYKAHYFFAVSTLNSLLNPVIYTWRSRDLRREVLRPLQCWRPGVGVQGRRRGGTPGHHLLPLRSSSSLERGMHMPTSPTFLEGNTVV
S1P5, sequence (Q9H228 whole entry, species assumed): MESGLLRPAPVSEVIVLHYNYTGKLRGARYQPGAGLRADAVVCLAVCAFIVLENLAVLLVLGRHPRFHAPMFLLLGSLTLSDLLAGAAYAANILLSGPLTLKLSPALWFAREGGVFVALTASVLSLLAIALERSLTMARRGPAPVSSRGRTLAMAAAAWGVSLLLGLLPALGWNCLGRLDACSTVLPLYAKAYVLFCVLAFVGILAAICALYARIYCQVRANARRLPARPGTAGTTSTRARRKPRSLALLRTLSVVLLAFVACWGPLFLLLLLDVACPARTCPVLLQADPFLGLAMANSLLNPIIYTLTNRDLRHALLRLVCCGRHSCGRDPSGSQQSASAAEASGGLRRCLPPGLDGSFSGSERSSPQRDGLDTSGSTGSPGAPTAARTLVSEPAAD
S1P1, sequence (P21453 whole entry, species assumed): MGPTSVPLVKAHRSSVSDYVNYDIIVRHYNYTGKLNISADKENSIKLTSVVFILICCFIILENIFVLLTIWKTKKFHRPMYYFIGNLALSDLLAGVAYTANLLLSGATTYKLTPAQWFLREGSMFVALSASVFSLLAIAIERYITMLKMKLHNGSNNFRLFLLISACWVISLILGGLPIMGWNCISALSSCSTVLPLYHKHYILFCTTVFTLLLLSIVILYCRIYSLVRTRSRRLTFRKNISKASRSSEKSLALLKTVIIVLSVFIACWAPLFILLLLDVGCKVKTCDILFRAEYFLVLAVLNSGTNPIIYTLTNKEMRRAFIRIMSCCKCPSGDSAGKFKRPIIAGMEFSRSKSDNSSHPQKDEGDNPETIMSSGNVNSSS

Row | Compound | IC50 (S1P1; IC50 (nM) S1P1, Table 5) [nM] | IC50 (S1P5; [4]) [nM] | other results
1 | Cc1ccccc1-c1ccc(-c2nc(-c3ccc(CN(C)CCO)c(F)c3)no2)cc1C(F)(F)F [TZ82-51] | – | – | IC50 (S1P3): 454 nM; IC50 (S1P2): > 1000 nM; IC50 (S1P4): > 1000 nM
2 | Cc1ccccc1-c1ccc(-c2nc(-c3ccc(CN(C)CCCO)c(F)c3)no2)cc1C(F)(F)F [TZ82-52] | – | – | IC50 (S1P3): 418 nM; IC50 (S1P2): > 1000 nM; IC50 (S1P4): > 1000 nM
3 | Cc1ccccc1-c1ccc(-c2nc(-c3ccc(CN(C)CCCCO)c(F)c3)no2)cc1C(F)(F)F [TZ82-53] | – | – | IC50 (S1P1; [3]): 4.9 nM
4 | CN(CCC(=O)O)Cc1ccc(-c2noc(-c3ccc(OCc4cccnc4F)c(C(F)(F)F)c3)n2)cc1F [TZ82-55] | 159 | 74.4 | –
5 | OCc1ccc(-c2noc(-c3ccc(OCc4cccnc4F)c(C(F)(F)F)c3)n2)cc1 [TZ82-91] | 239 | 182 | –
6 | OCc1ccc(-c2noc(-c3ccc(OCc4cccc(F)n4)c(C(F)(F)F)c3)n2)cc1 [TZ82-92] | 243 | 934 | –
7 | Cc1ccccc1-c1ccc(-c2nc(-c3ccc(CNCCC(=O)O)c(F)c3)no2)cc1C(F)(F)F [TZ82-94] | 0.7 | 7.2 | –
8 | Cc1ccccc1-c1ccc(-c2nc(-c3ccc(CN(C)CCS(=O)(=O)O)c(F)c3)no2)cc1C(F)(F)F [TZ82-101] | 2.3 | – | –
9 | Cc1ccccc1-c1ccc(-c2nc(-c3ccc(CNO)c(F)c3)no2)cc1C(F)(F)F [TZ82-105] | 8.7 | – | –
10 | CN(CCCO)Cc1ccc(-c2noc(-c3ccc(OCCF)c(C(F)(F)F)c3)n2)cc1F [TZ82-112] | 15.8 | 234 | IC50 (S1P3): 746 nM; IC50 (S1P2): > 1000 nM; IC50 (S1P5; Table 6, read-out: IC50 for S1P5): > 1000 nM; IC50 (S1P4): > 1000 nM; IC50 (S1P1; IC50 for S1P1 (nM), Table 6, single determinations): 15.8 nM and 2.03 nM and 8.17 nM
11 | CN(CCCCO)Cc1ccc(-c2noc(-c3ccc(OCCF)c(C(F)(F)F)c3)n2)cc1F [TZ82-115] | – | 721 | –
12 | Cc1ccccc1-c1ccc(-c2nc(-c3ccc(CN([11CH3])CCC(=O)O)c(F)c3)no2)cc1C(F)(F)F [[^11C]CS1P1] | – | – | total absorbed dose ([1]; Brain, human): 1.02 ± 0.1 μGy/MBq; total absorbed dose ([1]; Gall bladder, human): 4.82 ± 0.19 μGy/MBq; total absorbed dose ([1]; Heart wall, human): 2.06 ± 0.13 μGy/MBq; total absorbed dose ([1]; Kidneys, human): 4.66 ± 0.22 μGy/MBq; total absorbed dose ([1]; Liver, human): 9.88 ± 0.03 μGy/MBq; total absorbed dose ([1]; Lung, human): 2.13 ± 0.56 μGy/MBq; total absorbed dose ([1]; Pancreas, human): 2.22 ± 0.07 μGy/MBq; total absorbed dose ([1]; Spleen, human): 3.09 ± 0.35 μGy/MBq; total absorbed dose ([1]; Urinary bladder, human): 0.48 ± 0.32 μGy/MBq; total human effective dose ([1]; administration of 10 mCi (370 MBq)): < 0.6 mSv; Effective does (μSv/MBq) ([1]; human): 1.60 ± 0.15 μSv/MBq; safety of imaging for clinical PET studies ([1]; human, in words): safe; brain uptake, maximum SUV value ([2]; macaque brain, from 20 to 120 min post-injection): ~2.3
13 | Cc1ccccc1-c1ccc(-c2nc(-c3ccc(CN(C)CC(=O)O)c([18F])c3)no2)cc1C(F)(F)F [[^18F]TZ8247] | – | – | brain uptake in nonhuman primates [2]: high brain uptake
14 | Cc1ccccc1-c1ccc(-c2nc(-c3ccc(CN(C)CCCC(=O)O)c([18F])c3)no2)cc1C(F)(F)F [[^18F]TZ8248] | – | – | brain uptake in nonhuman primates [2]: high brain uptake; brain uptake, standard uptake value (SUV) ([2]; macaque brain, 120 min post-injection): ~2.8

Continued, in another order:

Row | IC50 (S1P1; IC50 (nM) S1P1, Table 5) [nM] | IC50 (S1P5; [4]) [nM] | Compound | other results
15 | 82 ± 1.8 | – | CNc1cccc(-c2noc(-c3ccc(OCCF)c(C(F)(F)F)c3)n2)c1 [TZ82-41] | –
16 | 29 ± 0.5 | – | Nc1cccc(-c2noc(-c3ccc(OCCF)c(C(F)(F)F)c3)n2)c1 [TZ82-42] | –
17 | 44 ± 0.6 | – | Nc1ccc(-c2noc(-c3ccc(OCCF)c(C(F)(F)F)c3)n2)cc1 [TZ82-43] | –
18 | 55.4 | 39.3 | CN(CCC(=O)O)Cc1ccc(-c2noc(-c3ccc(OCc4cccc(F)n4)c(C(F)(F)F)c3)n2)cc1F [TZ82-56] | –
19 | 2.1 | 11 | Cc1ccccc1-c1ccc(-c2nc(-c3ccc(CN(C)CCC(=O)O)c(Br)c3)no2)cc1C(F)(F)F [TZ82-65] | –
20 | 2.8 | – | Cc1ccccc1-c1ccc(-c2nc(-c3ccc(COCCCO)c(F)c3)no2)cc1C(F)(F)F [TZ82-78] | –
21 | – | 12.8 | Cc1ccccc1-c1ccc(-c2nc(-c3ccc(CNCCCO)c(F)c3)no2)cc1C(F)(F)F [TZ82-95] | IC50 (S1P1; [3]): 2.1 nM
22 | 23.8 | – | Cc1ccccc1-c1ccc(-c2nc(-c3ccc(CN(C)CCNC(=O)OC(C)(C)C)c(F)c3)no2)cc1C(F)(F)F [TZ82-102] | –
23 | 13.4 | – | CNCc1ccc(-c2noc(-c3ccc(OCCF)c(C(F)(F)F)c3)n2)cc1F [TZ82-110] | –
24 | 14.6 | 120 | CN(CCO)Cc1ccc(-c2noc(-c3ccc(OCCF)c(C(F)(F)F)c3)n2)cc1F [TZ82-114] | –
25 | 3 | – | CNC(=O)CCN(C)Cc1ccc(-c2noc(-c3ccc(-c4ccccc4C)c(C(F)(F)F)c3)n2)cc1F [TZ82-118] | –
26 | – | 450 | CN(CCCO)Cc1ccc(-c2noc(-c3ccc(OCCF)c(C(F)(F)F)c3)n2)cc1 [TZ82-124] | –
27 | – | 1940 | COc1ccc(-c2nc(-c3ccc(CN(C)CCCO)cc3)no2)cc1C(F)(F)F [TZ82-126] | –
